Assay results as given in ChEMBL document CHEMBL2331210, “New 2-benzylsulfanyl-nicotinic acid based 1,3,4-oxadiazoles: their synthesis and biological evaluation” (2013).
In brackets after ≈: the same amount, converted by molar mass.

Tests used:
[1] = tested on: UO-31; experiment: Antitumor activity against human UO31 cells assessed as cell growth at 0.1 uM; type: functional; details: read-out: Activity
[2] = tested on: TK-10; experiment: Antitumor activity against human TK10 cells assessed as cell growth at 0.1 uM; type: functional; details: read-out: Activity
[3] = tested on: SN12C; experiment: Antitumor activity against human SN12C cells assessed as cell growth at 0.1 uM; type: functional; details: read-out: Activity
[4] = tested on: RXF 393; experiment: Antitumor activity against human RXF393 cells assessed as cell growth at 0.1 uM; type: functional; details: read-out: Activity
[5] = tested on: ACHN; experiment: Antitumor activity against human ACHN cells assessed as cell growth at 0.1 uM; type: functional; details: read-out: Activity
[6] = tested on: CAKI-1; experiment: Antitumor activity against human CAKI-1 cells assessed as cell growth at 0.1 uM; type: functional; details: read-out: Activity
[7] = tested on: A498; experiment: Antitumor activity against human A498 cells assessed as cell growth at 0.1 uM; type: functional; details: read-out: Activity
[8] = tested on: SK-OV-3; experiment: Antitumor activity against human SKOV3 cells assessed as cell growth at 0.1 uM; type: functional; details: read-out: Activity
[9] = tested on: NCI/ADR-RES; experiment: Antitumor activity against human NCI/ADR-RES cells assessed as cell growth at 0.1 uM; type: functional; details: read-out: Activity
[10] = tested on: OVCAR-8; experiment: Antitumor activity against human OVCAR8 cells assessed as cell growth at 0.1 uM; type: functional; details: read-out: Activity
[11] = tested on: OVCAR-5; experiment: Antitumor activity against human OVCAR5 cells assessed as cell growth at 0.1 uM; type: functional; details: read-out: Activity
[12] = tested on: OVCAR-3; experiment: Antitumor activity against human OVCAR3 cells assessed as cell growth at 0.1 uM; type: functional; details: read-out: Activity
[13] = tested on: OVCAR-4; experiment: Antitumor activity against human OVCAR4 cells assessed as cell growth at 0.1 uM; type: functional; details: read-out: Activity
[14] = tested on: IGROV-1; experiment: Antitumor activity against human IGROV1 cells assessed as cell growth at 0.1 uM; type: functional; details: read-out: Activity
[15] = tested on: UACC-62; experiment: Antitumor activity against human UACC62 cells assessed as cell growth at 0.1 uM; type: functional; details: read-out: Activity
[16] = tested on: UACC-257; experiment: Antitumor activity against human UACC257 cells assessed as cell growth at 0.1 uM; type: functional; details: read-out: Activity
[17] = tested on: SK-MEL-5; experiment: Antitumor activity against human SK-MEL-5 cells assessed as cell growth at 0.1 uM; type: functional; details: read-out: Activity
[18] = tested on: SK-MEL-28; experiment: Antitumor activity against human SK-MEL-28 cells assessed as cell growth at 0.1 uM; type: functional; details: read-out: Activity
[19] = tested on: MDA-MB-435; experiment: Antitumor activity against human MDA-MB-435 cells assessed as cell growth at 0.1 uM; type: functional; details: read-out: Activity
[20] = tested on: M14; experiment: Antitumor activity against human M14 cells assessed as cell growth at 0.1 uM; type: functional; details: read-out: Activity
[21] = tested on: Malme-3M; experiment: Antitumor activity against human MALME-3M cells assessed as cell growth at 0.1 uM; type: functional; details: read-out: Activity
[22] = tested on: LOX IMVI; experiment: Antitumor activity against human LOXIMVI cells assessed as cell growth at 0.1 uM; type: functional; details: read-out: Activity
[23] = tested on: U-251; experiment: Antitumor activity against human U251 cells assessed as cell growth at 0.1 uM; type: functional; details: read-out: Activity
[24] = tested on: SNB-75; experiment: Antitumor activity against human SNB75 cells assessed as cell growth at 0.1 uM; type: functional; details: read-out: Activity
[25] = tested on: SF-539; experiment: Antitumor activity against human SF539 cells assessed as cell growth at 0.1 uM; type: functional; details: read-out: Activity
[26] = tested on: SNB-19; experiment: Antitumor activity against human SNB19 cells assessed as cell growth at 0.1 uM; type: functional; details: read-out: Activity
[27] = tested on: SF-295; experiment: Antitumor activity against human SF295 cells assessed as cell growth at 0.1 uM; type: functional; details: read-out: Activity
[28] = tested on: SF-268; experiment: Antitumor activity against human SF268 cells assessed as cell growth at 0.1 uM; type: functional; details: read-out: Activity
[29] = tested on: SW-620; experiment: Antitumor activity against human SW620 cells assessed as cell growth at 0.1 uM; type: functional; details: read-out: Activity
[30] = tested on: KM12; experiment: Antitumor activity against human KM12 cells assessed as cell growth at 0.1 uM; type: functional; details: read-out: Activity
[31] = tested on: HCT-15; experiment: Antitumor activity against human HCT15 cells assessed as cell growth at 0.1 uM; type: functional; details: read-out: Activity
[32] = tested on: HT-29; experiment: Antitumor activity against human HT-29 cells assessed as cell growth at 0.1 uM; type: functional; details: read-out: Activity
[33] = tested on: HCT-116; experiment: Antitumor activity against human HCT116 cells assessed as cell growth at 0.1 uM; type: functional; details: read-out: Activity
[34] = Antitumor activity against human HCC2998 cells assessed as cell growth at 0.1 uM; type: functional; details: HCC 2998, read-out: Activity
[35] = tested on: NCI-H460; experiment: Antitumor activity against human NCI-H460 cells assessed as cell growth at 0.1 uM; type: functional; details: read-out: Activity
[36] = tested on: NCI-H522; experiment: Antitumor activity against human NCI-H522 cells assessed as cell growth at 0.1 uM; type: functional; details: read-out: Activity
[37] = tested on: NCI-H23; experiment: Antitumor activity against human NCI-H23 cells assessed as cell growth at 0.1 uM; type: functional; details: read-out: Activity
[38] = tested on: NCI-H226; experiment: Antitumor activity against human NCI-H226 cells assessed as cell growth at 0.1 uM; type: functional; details: read-out: Activity
[39] = tested on: HOP-62; experiment: Antitumor activity against human HOP62 cells assessed as cell growth at 0.1 uM; type: functional; details: read-out: Activity
[40] = Antitumor activity against human EKVX cells assessed as cell growth at 0.1 uM; type: functional; details: read-out: Activity
[41] = tested on: A549; experiment: Antitumor activity against human A549/ATCC cells assessed as cell growth at 0.1 uM; type: functional; details: read-out: Activity
[42] = tested on: SR; experiment: Antitumor activity against human SR cells assessed as cell growth at 0.1 uM; type: functional; details: read-out: Activity
[43] = tested on: MOLT-4; experiment: Antitumor activity against human MOLT4 cells assessed as cell growth at 0.1 uM; type: functional; details: read-out: Activity
[44] = tested on: RPMI-8226; experiment: Antitumor activity against human RPMI8226 cells assessed as cell growth at 0.1 uM; type: functional; details: read-out: Activity
[45] = tested on: K562; experiment: Antitumor activity against human K562 cells assessed as cell growth at 0.1 uM; type: functional; details: read-out: Activity
[46] = tested on: HL-60; experiment: Antitumor activity against human HL60(TB) cells assessed as cell growth at 0.1 uM; type: functional; details: read-out: Activity
[47] = tested on: CCRF-CEM; experiment: Antitumor activity against human CCRF-CEM cells assessed as cell growth at 0.1 uM; type: functional; details: read-out: Activity
[48] = tested on: Mycobacterium tuberculosis; experiment: Antitubercular activity against Mycobacterium tuberculosis H37Rv assessed as growth inhibition after 12 to 28 days by L.J. agar MIC method; type: functional
[49] = tested on: Aspergillus clavatus; experiment: Antimicrobial activity against Aspergillus clavatus MTCC 1323 assessed as growth inhibition measured after overnight incubation by broth dilution method; type: functional
[50] = tested on: Aspergillus niger; experiment: Antimicrobial activity against Aspergillus niger MTCC 282 assessed as growth inhibition measured after overnight incubation by broth dilution method; type: functional
[51] = tested on: Candida albicans; experiment: Antimicrobial activity against Candida albicans MTCC 227 assessed as growth inhibition measured after overnight incubation by broth dilution method; type: functional
[52] = tested on: Pseudomonas aeruginosa; experiment: Antimicrobial activity against Pseudomonas aeruginosa MTCC 2488 assessed as growth inhibition measured after overnight incubation by broth dilution method; type: functional
[53] = tested on: Escherichia coli; experiment: Antimicrobial activity against Escherichia coli MTCC 443 assessed as growth inhibition measured after overnight incubation by broth dilution method; type: functional
[54] = tested on: Streptococcus pyogenes; experiment: Antimicrobial activity against Streptococcus pyogenes MTCC 442 assessed as growth inhibition measured after overnight incubation by broth dilution method; type: functional
[55] = tested on: Staphylococcus aureus; experiment: Antimicrobial activity against Staphylococcus aureus MTCC 96 assessed as growth inhibition measured after overnight incubation by broth dilution method; type: functional
[56] = tested on: MDA-MB-468; experiment: Antitumor activity against human MDA-MB-468 cells assessed as cell growth at 0.1 uM; type: functional; details: read-out: Activity
[57] = tested on: T47D; experiment: Antitumor activity against human T47D cells assessed as cell growth at 0.1 uM; type: functional; details: read-out: Activity
[58] = Antitumor activity against human Hs 578T cells assessed as cell growth at 0.1 uM; type: functional; details: read-out: Activity
[59] = tested on: BT-549; experiment: Antitumor activity against human BT549 cells assessed as cell growth at 0.1 uM; type: functional; details: read-out: Activity
[60] = tested on: MDA-MB-231; experiment: Antitumor activity against human MDA-MB-231/ATCC cells assessed as cell growth at 0.1 uM; type: functional; details: read-out: Activity
[61] = tested on: DU-145; experiment: Antitumor activity against human DU145 cells assessed as cell growth at 0.1 uM; type: functional; details: read-out: Activity
[62] = tested on: MCF7; experiment: Antitumor activity against human MCF7 cells assessed as cell growth at 0.1 uM; type: functional; details: read-out: Activity
[63] = tested on: PC-3; experiment: Antitumor activity against human PC3 cells assessed as cell growth at 0.1 uM; type: functional; details: read-out: Activity
[64] = tested on: SK-MEL-2; experiment: cells; details: Homo sapiens, SK-MEL-2, read-out: Activity
Description: Antitumor activity against human SK-MEL-2 cells assessed as cell growth at 0.1 uM

Work on Cc1cnc(NC(=O)CSc2nnc(-c3cccnc3SCc3ccccc3)o2)s1 yielded a growth at 0.1 µM [1] of 22.2%, a growth at 0.1 µM [2] of 82.3% and a growth at 0.1 µM [3] of 46.3%. The growth at 0.1 µM [4] was 73%, the growth at 0.1 µM [5] was 66.5% and the growth at 0.1 µM [6] was 75.3%. The growth at 0.1 µM [7] was 73.7%, the growth at 0.1 µM [8] was 96.2% and the growth at 0.1 µM [9] was 74%. It also gave a growth at 0.1 µM [10] of 70.3%, a growth at 0.1 µM [11] of 87.5% and a growth at 0.1 µM [12] of 82.2%. For the same compound, the growth at 0.1 µM [13] was 67%, the growth at 0.1 µM [14] was 58.5% and the growth at 0.1 µM [15] was 71.7%. It also gave a growth at 0.1 µM [16] of 94.9%, a growth at 0.1 µM [17] of 78% and a growth at 0.1 µM [18] of 106%. It also gave a growth at 0.1 µM [19] of 96.5%, a growth at 0.1 µM [20] of 84.1% and a growth at 0.1 µM [21] of 100%. It also gave a growth at 0.1 µM [22] of 73.1%, a growth at 0.1 µM [23] of 72.8% and a growth at 0.1 µM [24] of 70.6%. The growth at 0.1 µM [25] was 85.5%, the growth at 0.1 µM [26] was 65.3% and the growth at 0.1 µM [27] was 90.1%. It also gave a growth at 0.1 µM [28] of 59.1%, a growth at 0.1 µM [29] of 90% and a growth at 0.1 µM [30] of 44.9%. The growth at 0.1 µM [31] was 77.3%, the growth at 0.1 µM [32] was 81.6% and the growth at 0.1 µM [33] was 82.4%. The growth at 0.1 µM [34] was 89.5%, the growth at 0.1 µM [35] was 81.1% and the growth at 0.1 µM [36] was 18.5%. For the same compound, the growth at 0.1 µM [37] was 80.6%, the growth at 0.1 µM [38] was 70.2% and the growth at 0.1 µM [39] was 81.1%. The growth at 0.1 µM [40] was 72.1%, the growth at 0.1 µM [41] was 51% and the growth at 0.1 µM [42] was 67.9%. The growth at 0.1 µM [43] was 41.8%, the growth at 0.1 µM [44] was 63.9% and the growth at 0.1 µM [45] was 77.2%. The growth at 0.1 µM [46] was 49.8%, the growth at 0.1 µM [47] was 37.8% and the “growth inhibition (GI)” value [48] was 99%. For the same compound, the MIC ([48]; Mycobacterium tuberculosis, H37Rv) was 50 µg/mL (≈ 110 µM), the MIC [49] was 1000 µg/mL (≈ 2190 µM) and the MIC [50] was 1000 µg/mL (≈ 2190 µM). The MIC [51] was 250 µg/mL (≈ 549 µM), the MIC [52] was 62.5 µg/mL (≈ 137 µM) and the MIC [53] was 200 µg/mL (≈ 439 µM). It also gave an MIC [54] of 62.5 µg/mL (≈ 137 µM), an MIC [55] of 125 µg/mL (≈ 274 µM) and a growth at 0.1 µM [56] of 57.5%. The growth at 0.1 µM [57] was 37.5%, the growth at 0.1 µM [58] was 86.2% and the growth at 0.1 µM [59] was 75.7%. It also gave a growth at 0.1 µM [60] of 11%, a growth at 0.1 µM [61] of 58% and a growth at 0.1 µM [62] of 62.8%. For the same compound, the growth at 0.1 µM [63] was 46.4% and the growth at 0.1 µM [64] was 94%.
